Reference: patent US20130172320A1, “PYRIDO [4,3-B] INDOLE AND PYRIDO [3,4-B] INDOLE DERIVATIVES AND METHODS OF USE” (priority 2010, published 2013)

Key:
[1] = molecular target: T1, human recombinant serotonin (5-Hydroxytryptamine) 5-HT5A receptor (Homo sapiens, UniProt P47898); test: Serotonin 5-HT5A radioligand binding ([3H]LSD); conditions: compound at 0.1 μM; read-out: Percentage inhibition of ligand binding, Serotonin (0.1 μM) 5-HT5A
T1 construct: expressed in transfected cells; host or cells: Chinese hamster ovary (CHO) K1 cells
T1 sequence (P47898 whole entry): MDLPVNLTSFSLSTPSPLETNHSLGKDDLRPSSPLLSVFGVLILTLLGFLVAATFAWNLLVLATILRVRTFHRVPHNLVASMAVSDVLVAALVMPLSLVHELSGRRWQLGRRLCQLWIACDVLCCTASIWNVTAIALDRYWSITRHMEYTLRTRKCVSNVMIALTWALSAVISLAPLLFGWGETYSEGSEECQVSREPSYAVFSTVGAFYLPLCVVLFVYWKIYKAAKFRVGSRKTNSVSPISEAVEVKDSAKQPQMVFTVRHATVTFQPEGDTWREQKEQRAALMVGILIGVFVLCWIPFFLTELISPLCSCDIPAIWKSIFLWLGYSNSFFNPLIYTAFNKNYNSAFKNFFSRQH
Method: To evaluate in radioligand binding assays the activity of compounds of the invention, human recombinant serotonin (5-Hydroxytryptamine) 5-HT5A receptor expressed in Chinese hamster ovary (CHO) K1 cells (Rees, S. et al, FEBS Lett. 355:242, 1994) in a modified Tris-HCl buffer (50 mM Tris-HCl, pH 7.4, 10 mM MgCl2, 0.5 mM EDTA) was used. Compounds of the invention were incubated with 1.7 nM [^3H]Lysergic acid diethylamide (LSD) for 60 min at 37° C. Non-specific binding was estimated in the presence of 100 μM Serotonin (5-HT). Receptor proteins were filtered and washed, the filters were counted to determine [^3H]LSD specifically bound. Compounds were screened at 1 μM or lower, using 1% DMSO as vehicle. Biochemical assay results are presented as the percent inhibition of specific binding in Table 4.

[2] = molecular target: T2, human recombinant serotonin (5-Hydroxytryptamine) 5-HT2A receptor (Homo sapiens, UniProt P28223); test: Serotonin 5-HT2A radioligand binding ([3H]Ketanserin); conditions: compound at 0.1 μM; read-out: Percentage inhibition of ligand binding, Serotonin (0.1 μM) 5-HT2A
T2 construct: expressed in transfected cells; host or cells: Chinese hamster ovary (CHO) K1 cells
T2 sequence (P28223 whole entry): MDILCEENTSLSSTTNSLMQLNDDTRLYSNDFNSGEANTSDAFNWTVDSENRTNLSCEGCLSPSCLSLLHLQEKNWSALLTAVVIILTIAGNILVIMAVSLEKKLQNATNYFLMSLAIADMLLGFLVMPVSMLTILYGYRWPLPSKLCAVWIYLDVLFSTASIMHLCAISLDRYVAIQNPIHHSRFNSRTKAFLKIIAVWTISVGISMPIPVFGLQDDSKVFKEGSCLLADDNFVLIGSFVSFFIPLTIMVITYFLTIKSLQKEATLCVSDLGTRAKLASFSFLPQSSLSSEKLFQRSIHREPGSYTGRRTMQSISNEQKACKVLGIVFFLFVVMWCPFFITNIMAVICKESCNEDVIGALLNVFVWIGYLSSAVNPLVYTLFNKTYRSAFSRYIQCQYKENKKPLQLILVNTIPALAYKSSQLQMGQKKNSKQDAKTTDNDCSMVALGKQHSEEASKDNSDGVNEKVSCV
Method: To evaluate in radioligand binding assays the activity of compounds of the invention, human recombinant serotonin (5-Hydroxytryptamine) 5-HT2A receptor expressed in Chinese hamster ovary (CHO) K1 cells (Bonhaus, D. et al, Br. J. Pharmacol. 115:622, 1995; Saucier, C. et al, J. Neurochem. 68:1998, 1997) in a 50 mM Tris-HCl buffer, pH 7.4, was used. Compounds of the invention were incubated with 0.5 nM [^3H]Ketanserin for 60 min at 25° C. Non-specific binding was estimated in the presence of 1 μM Mianserin. Receptor proteins were filtered and washed, the filters were then counted to determine [^3H]Ketanserin specifically bound. Compounds were screened at 1 μM or lower, using 1% DMSO as vehicle. Biochemical assay results are presented as the percent inhibition of specific binding in Table 4.

Compound | inhibition at 0.1 µM [1] | inhibition at 0.1 µM [2]
C#CCC1(C)CN(C)Cc2c1n(C)c1ccc(C)cc21 (stereo not shown) [Compound 47, 2,4,5,8-tetramethyl-4-(prop-2-ynyl)-2,3,4,5-tetrahydro-1H-pyrido[4,3-b]indole] | 34% | 32%
Cc1ccc2c(c1)c1c(n2C)C(C)(CCc2nc(-c3ccccc3)cs2)CN(C)C1 (stereo not shown) [Compound 48] | -3% | 39%
